Laboratory results published in patent US20160095843A1, “PYRAZOLOPYRROLIDINE DERIVATIVES AND THEIR USE IN THE TREATMENT OF DISEASE” (NOVARTIS AG, priority 2013, published 2016).

Key:
MV-4-11 cells = assay: Cell growth inhibition assay (CellTiter-Glo), MV-4-11; type: cell-based; details: Homo sapiens, MV4-11
Protocol: (§1) Cell Growth Inhibition Assay
(§2) The human leukemia cell lines MV-4-11, THP-1 and K-562 were employed to characterize the effect of BET inhibitors on cellular proliferation and viability. Cells were obtained from the American Type Culture Collection (ATCC) and cultured at 37° C. in a humidified 5% CO2 incubator in the following media: MV-4-11: DMEM high glucose (Animed #1-26F01-I), 10% FCS (Animed #2-01F26-I), 4 mM L-Glutamine (Animed #5-10K50), 1 mM Sodium Pyruvate (Animed # G03625P), 1× Penicillin-Streptomycin (Animed # F12478P); K-562: Iscove's MEM (Animed #1-28F16-I), 10% FCS (Animed #2-01F26-I), 4 mM L-Glutamine (Animed #5-10K50), 1× Penicillin-Streptomycin (Animed # F12478P); THP-1: RPMI-1640 (Animed #1-41F01-I), 10% FCS (Animed #2-01F26-I), 2 mM L-Glutamine (Animed #5-10K50), 10 mM HEPES (Animed #5-31F100), 1 mM Sodium Pyruvate (Animed # G03625P), 1× Penicillin-Streptomycin (Animed # F12478P). The AML lines MV-4-11 and THP-1 are very sensitive to BET inhibitors and show massive cell death upon BET inhibition (Zuber et al., Nature, 478 (2011), 524-8). Compound-mediated suppression of cell proliferation/viability was assessed by quantification of cellular ATP levels using the CellTiter-Glo (CTG) reagent (Promega). Briefly, cells were seeded in 20 μl fresh medium into 384-well plates, followed by addition of 5 μL medium containing compound dilutions at 5-fold their final intended concentration. Dose-response effects were assessed by 3-fold serial dilutions of the test compound, starting at 10 μM. Following incubation of the cells for 4 days at 37° C. and 5% CO2, the effect of inhibitors on cell viability was quantified following addition of 20 μl CTG and luminescence quantification (integration time: 100 ms) as per vendor manual, using a correspondingly equipped Tecan M200 multi-mode platereader (TECAN, Switzerland). For data analysis, the assay background value determined in wells containing medium, but no cells, was subtracted from all data points. To enable differentiation of cytotoxic from cytostatic compounds, the number of viable cells is assessed relative to that observed at the time of compound addition using a separate cell plate (day 0). The effect of a particular test compound concentration on cell proliferation/viability is expressed as percentage of the background- and day 0-corrected luminescence reading obtained for cells treated with vehicle only (DMSO, 0.1% final concentration), which is set as 100%, whereas that luminescence reading for wells containing medium is set as −100%. Compound concentrations leading to half-maximal (1050) and total growth inhibition (TGI) were determined using standard four parameter curve fitting.

THP-1 cells = assay: Cell growth inhibition assay (CellTiter-Glo), THP-1; type: cell-based; details: Homo sapiens
Protocol: as §1, §2

K-562 cells = assay: Cell growth inhibition assay (CellTiter-Glo), K-562; type: cell-based, human; details: for GI50: Homo sapiens, K562
Protocol: as §1, §2

GI50 (MV-4-11 cells)	GI50 (THP-1 cells)	GI50 (K-562 cells)	Structure (SMILES)	IC (TGI) (K-562 cells)
249 nM	374 nM	953 nM	COc1ncc(-n2nc(C)c3c2C(=O)N(c2cc(Cl)c(=O)n(C)c2)C3c2ccc(Cl)cc2)c(OC)n1 (stereo not drawn) [Example 53, 5-(5-chloro-1-methyl-6-oxo-1,6-dihydropyridin-3-yl)-4-(4-chlorophenyl)-1-(2,4-dimethoxypyrimidin-5-yl)-3-methyl-4,5-dihydropyrrolo[3,4-c]pyrazol-6(1H)-one]	–
458 nM	637 nM	1530 nM	COc1ncc(-n2nc3c(c2C(C)C)C(c2ccc(Cl)cc2)N(c2ccc4onc(C)c4c2)C3=O)c(OC)n1 (stereo not drawn) [Example 54, 4-(4-chlorophenyl)-2-(2,4-dimethoxypyrimidin-5-yl)-3-isopropyl-5-(3-methylbenzo-[d]isoxazol-5-yl)-4,5-dihydropyrrolo[3,4-c]pyrazol-6(2H)-one]	–
89.1 nM	231 nM	400 nM	COc1ncc(-n2nc3c(c2C)C(c2ccc(Cl)cc2)N(c2cc(Cl)c(=O)n(C)c2)C3=O)c(OC)n1 (stereo not drawn) [Example 55, 5-(5-chloro-1-methyl-6-oxo-1,6-dihydropyridin-3-yl)-4-(4-chlorophenyl)-2-(2,4-dimethoxypyrimidin-5-yl)-3-methyl-4,5-dihydropyrrolo[3,4-c]pyrazol-6(2H)-one]	–
57.4 nM	70.2 nM	265 nM	COc1ncc(-n2nc3c(c2C)C(c2ccc(Cl)cc2)N(c2cc(C)c(=O)n(C)c2)C3=O)c(OC)n1 (stereo not drawn) [Example 56, 4-(4-chlorophenyl)-2-(2,4-dimethoxypyrimidin-5-yl)-5-(1,5-dimethyl-6-oxo-1,6-dihydropyridin-3-yl)-3-methyl-4,5-dihydropyrrolo[3,4-c]pyrazol-6(2H)-one]	–
69.5 nM	117 nM	480 nM	Cc1nn(C)c2c1C(c1ccc(Cl)cc1)N(c1cc(C)c(=O)n(C)c1)C2=O (stereo not drawn) [Example 57, 4-(4-chlorophenyl)-5-(1,5-dimethyl-6-oxo-1,6-dihydropyridin-3-yl)-1,3-dimethyl-4,5-dihydropyrrolo-[3,4-c]pyrazol-6(1H)-one]	–
94.4 nM	189 nM	1140 nM	Cc1nn(C)c2c1C(c1ccc(Cl)cc1)N(c1cc(Cl)c(=O)n(C)c1)C2=O (stereo not drawn) [Example 58, 5-(5-chloro-1-methyl-6-oxo-1,6-dihydropyridin-3-yl)-4-(4-chlorophenyl)-1,3-dimethyl-4,5-dihydropyrrolo[3,4-c]pyrazol-6(1H)-one]	–
220 nM	317 nM	1250 nM	COc1nccc(-n2nc(C)c3c2C(=O)N(c2cc(C)c(=O)n(C)c2)C3c2ccc(Cl)cc2)n1 (stereo not drawn) [Example 59, 4-(4-chlorophenyl)-5-(1,5-dimethyl-6-oxo-1,6-dihydropyridin-3-yl)-1-(2-methoxypyrimidin-4-yl)-3-methyl-4,5-dihydropyrrolo[3,4-c]pyrazol-6(1H)-one]	–
86.9 nM	166 nM	456 nM	CCc1nn(-c2cnc(OC)nc2OC)c2c1C(c1ccc(Cl)cc1)N(c1cc(C)c(=O)n(C)c1)C2=O (stereo not drawn) [Example 60, 4-(4-chlorophenyl)-1-(2,4-dimethoxypyrimidin-5-yl)-5-(1,5-dimethyl-6-oxo-1,6-dihydropyridin-3-yl)-3-ethyl-4,5-dihydropyrrolo[3,4-c]pyrazol-6(1H)-one]	–
58.4 nM	97.7 nM	316 nM	COc1ncc(-n2nc3c(c2C(C)C)[C@@H](c2ccc(Cl)cc2)N(c2cc(C)c4onc(C)c4c2)C3=O)c(OC)n1 [Example 62, (R)-4-(4-chlorophenyl)-2-(2,4-dimethoxypyrimidin-5-yl)-5-(3,7-dimethylbenzo[d]-isoxazol-5-yl)-3-isopropyl-4,5-dihydropyrrolo[3,4-c]pyrazol-6(2H)-one]	>10000 nM
25.8 nM	61.9 nM	314 nM	Cc1nn(C(C)C)c2c1C(c1ccc(Cl)cc1)N(c1cc(C)c(=O)n(C)c1)C2=O (stereo not drawn) [Example 63, 4-(4-chlorophenyl)-5-(1,5-dimethyl-6-oxo-1,6-dihydropyridin-3-yl)-1-isopropyl-3-methyl-4,5-dihydropyrrolo[3,4-c]pyrazol-6(1H)-one]	>10000 nM
27.6 nM	64.8 nM	292 nM	Cc1cc(N2C(=O)c3nn(C(C)C)c(C)c3C2c2ccc(Cl)cc2)cn(C)c1=O (stereo not drawn) [Example 64, 4-(4-chlorophenyl)-5-(1,5-dimethyl-6-oxo-1,6-dihydropyridin-3-yl)-2-isopropyl-3-methyl-4,5-dihydropyrrolo-[3,4-c]pyrazol-6(2H)-one]	–
67.5 nM	121 nM	554 nM	Cc1c2c(nn1C(C)C)C(=O)N(c1cc(Cl)c(=O)n(C)c1)C2c1ccc(Cl)cc1 (stereo not drawn) [Example 65, 5-(5-chloro-1-methyl-6-oxo-1,6-dihydropyridin-3-yl)-4-(4-chlorophenyl)-2-isopropyl-3-methyl-4,5-dihydropyrrolo-[3,4-c]pyrazol-6(2H)-one]	–
67.7 nM	126 nM	908 nM	Cc1nn(C(C)C)c2c1C(c1ccc(Cl)cc1)N(c1cc(Cl)c(=O)n(C)c1)C2=O (stereo not drawn) [Example 66, 5-(5-chloro-1-methyl-6-oxo-1,6-dihydropyridin-3-yl)-4-(4-chlorophenyl)-1-isopropyl-3-methyl-4,5-dihydropyrrolo-[3,4-c]pyrazol-6(1H)-one]	–
8.55 nM	20.3 nM	47.4 nM	COc1ncc(-n2nc3c(c2C(C)C)C(c2ccc(Cl)cc2)N(c2cc(C)c4nnc(C)n4c2)C3=O)c(OC)n1 (stereo not drawn) [Example 67, 4-(4-chlorophenyl)-2-(2,4-dimethoxypyrimidin-5-yl)-5-(3,8-dimethyl-[1,2,4]triazolo-[4,3-a]pyridin-6-yl)-3-isopropyl-4,5-dihydropyrrolo-[3,4-c]pyrazol-6(2H)-one]	–
30.1 nM	47.7 nM	157 nM	CCc1c2c(nn1C1CC1)C(=O)N(c1cc(C)c(=O)n(C)c1)C2c1ccc(Cl)cc1 (stereo not drawn) [Example 68, 4-(4-chlorophenyl)-2-cyclopropyl-5-(1,5-dimethyl-6-oxo-1,6-dihydropyridin-3-yl)-3-ethyl-4,5-dihydropyrrolo-[3,4-c]pyrazol-6(2H)-one]	–
27.4 nM	44.2 nM	135 nM	CCc1nn(C2CC2)c2c1C(c1ccc(Cl)cc1)N(c1cc(C)c(=O)n(C)c1)C2=O (stereo not drawn) [Example 69, 4-(4-chlorophenyl)-1-cyclopropyl-5-(1,5-dimethyl-6-oxo-1,6-dihydropyridin-3-yl)-3-ethyl-4,5-dihydropyrrolo-[3,4-c]pyrazol-6(1H)-one]	–
9.02 nM	12.2 nM	60.8 nM	CCc1nn(C2CC2)c2c1C(c1ccc(Cl)cc1)N(c1cc(C)c3nnc(C)n3c1)C2=O (stereo not drawn) [Example 70, 4-(4-chlorophenyl)-1-cyclopropyl-5-(3,8-dimethyl-[1,2,4]triazolo[4,3-a]pyridin-6-yl)-3-ethyl-4,5-dihydropyrrolo-[3,4-c]pyrazol-6(1H)-one]	–
66.6 nM	75.6 nM	345 nM	COc1ncccc1-n1nc(C)c2c1C(=O)N(c1cc(C)c(=O)n(C)c1)C2c1ccc(Cl)cc1 (stereo not drawn) [Example 71, 4-(4-chlorophenyl)-5-(1,5-dimethyl-6-oxo-1,6-dihydropyridin-3-yl)-1-(2-methoxypyridin-3-yl)-3-methyl-4,5-dihydropyrrolo-[3,4-c]pyrazol-6(1H)-one]	>10000 nM
